In brackets after ≈: the same amount, converted by molar mass. Read-outs that look alike come from different tables or passages of the source.
What was measured:
[1] = system: DU-145 cell line; assay: MTT assay IC50 in DU-145 cell line; assay type: cell-based, human; conditions: called antagonist activity against SRD5A2
Experimental: (§1) The DU-145 cell lines and HEK293 cell lines were grown to 70% confluence in DMEM supplemented with 10% (v/v) fetal bovine serum and 1% antibiotic (100 μg/mL of streptomycin and 100 unit/mL of penicillin (P/S) at 37° C. in a 5% CO2 environment.
(§2) The half maximal inhibitory concentration (IC50) was established in the selected cell lines. The cell lines previously identified as having high endogenous expression levels of SRD5A2 were used to determine the in-vitro cytotoxic effects of Bsy1 on DU-145 and HEK293. The results were compared with the comparative compounds finasteride and dutasteride. The cytotoxic concentration and cell viability of these drugs were evaluated using the 3-(4,5-dimethylthiazol-2-yl)-2,5-diphenyl-2H-tetrazolium bromide (“MTT”) assay, using the comparative compounds as positive controls.
(§3) The study seeded cells at 1×10^4 cells/well density using a 96-well plate and incubated them for 24 hours to allow the cells to attach in a 5% CO2 incubator at 37° C. Different serial concentrations of the compounds treated the cells, 1% (v/v) DMSO/methanol in DMEM treated the control cells, and DMEM only served as a blank. Cells were stained with 100 μl of a 0.5 mg/ml MTT solution and incubated in a 5% CO2 atmosphere at 37° C. incubators for 4 hours. The medium was aspirated, and 100 μl of absolute ethanol was added to each well. The formation of […] measured all growth and chemosensitivity. Absorbance was detected spectrophotometrically at 570 nm using a reference wavelength of 630 nm. The experiments were performed in triplicate.
(§4) The dose-response from the non-linear curve (inhibitor vs normalised response—variable slope curve), plotted using GraphPad Prism V 9.3.1, was used to determine the IC50 values of these cells.
The study determined the ICs values using a non-linear curve fit with a hyperbola model (FIG. 3).

[2] = system: HEK293 cell line; assay: MTT assay IC50 in HEK293 cell line; assay type: cell-based, human
Experimental: as §1, §2, §3, §4
However, the IC50 values for Bsy1 in the HEK293 cell lines were higher than in the DU-145 cells.

[3] = system: HEK293 and DU-145 cell lines; assay: Selectivity index from ratio of IC50 values, normal cells vs cancer cells; assay type: cell-based, human; conditions: normal cells (HEK293) vs cancer cells (DU-145)
Experimental: The selectivity index, indicating the selectivity of a given compound between normal cells and cancer cells, was calculated from the ratio of their respective IC50 values (Equation 1).

[4] = system: SRD5A1 gene; assay: qPCR relative expression of SRD5A1 gene in DU-145 cell line; assay type: cell-based, human; conditions: DU-145, 24 hours at IC50 values
Experimental: as §1
(§5) The androgen-independent DU-145 cell line, treated with finasteride (0.9 nM), dutasteride (1.6 μM), and Bsy1 (0.0054 nM) for 24 hours, was measured for their SRD5A gene regulation using qPCR. […] The relative expression of the SRD5A2 gene was reduced by approximately 3-fold for finasteride and dutasteride and 2-fold for Bsy1 (FIG. 5A). However, it should be noted that the finasteride concentrations were 100-fold, and dutasteride 1000-fold, higher than the concentration of Bsy1. […] The level of inhibitory action against SRD5A1 and SRD5A2 is surprising as it is expected that that the phenyl-pyrazolo[3,4-b]pyridine-4-carboxylic acid Bsy1 and its derivates, as described herein, will show similar inhibition results. […] Experiments were repeated three times.]
(§6) A two-way ANOVA statistical analysis was conducted to compare the gene suppression levels of each drug treatment against the control (untreated), using Dunnett's correction test (DCT) (FIG. 5B). [FIG. 5B—two-way ANOVA Dunnett test of the Control vs Treatment at IC50 values. Comparison tests of control vs. drug treatment at p<0.05 for: SRD5A1 (ns); SRD5A2**; SRD5A3 (ns). […]

[5] = system: SRD5A2 gene; assay: qPCR relative expression of SRD5A2 gene in HEK293 cell line; assay type: cell-based, human; conditions: for relative expression of the SRD5A2 gene increased: HEK293, 24 hours at IC50 (finasteride 1.34 nM, dutasteride 1.29 μM, Bsy1 0.02 nM)
Experimental: as §1
Experiments were repeated three times.]
The two-way ANOVA compared the expression levels of the SRD5A genes and between the different drugs in HEK293 cell lines (FIG. 6 B). […] Data were expressed for each bar as means±standard error of mean ****P≤0.0001 from control.

[6] = Solubility, miniaturised shake-flask method; assay type: physicochemical; conditions: aqueous buffer, thermodynamic from solid, pH 7.4 as headed, phosphate buffer, 25° C.
Experimental: […] Briefly, 4 μl of a 10 mM stock in DMSO was added to a 96-well plate and evaporated using a GeneVac system. […] At the end of this incubation, the samples were centrifuged at 3500 g for 15 min then transferred to an analysis plate. A calibration curve in DMSO for each sample between 10-220 μM was prepared and included in the analysis plate. Analysis was then performed by LC-MS (Agilent Rapid Resolution HPLC, AB SCIEX 4500 MS) and solubility of each sample determined from the corresponding calibration curve.

[7] = Plasma protein binding by ultracentrifugation; assay type: in vitro ADME; conditions: mouse, read-out: Mouse PPB (converted)
[8] = Mouse hepatocyte stability
Experimental: (§7) Hepatocyte stability was performed using a 5-point assay design using cryopreserved hepatocytes in suspension. Briefly, the compounds (1 μM) were incubated at 37° C. in human (Hepatosure 100-donor pool, XenoTech LLC) and mouse (Cryostax mouse CD1, XenoTech LLC) hepatocytes (500,000 cells/ml) for various timepoints over 120 min. Reactions were quenched by adding ice-cold acetonitrile containing internal standard. The samples were then centrifuged, and the samples analysed by LC-MS/MS (Agilent Rapid Resolution HPLC, AB SCIEX 4500 MS) for the disappearance of parent compound. Half-life, clearance and hepatic excretion ratios were determined using standard equations.
(§8) The CLint,app value can be used to calculate a predicted in vivo value by factoring in scaling factors (number of hepatocytes per gram of liver and grams of liver per kg body weight) and binding (measured plasma protein binding and estimated incubational binding). The predicted mouse and human clearance values represent the total hepatic clearances that would be expected for these compounds in vivo.

[9] = Human hepatocyte stability
Experimental: as §7, §8

[10] = system: SRD5A2 gene; assay: qPCR relative expression of SRD5A2 gene in DU-145 cell line; assay type: cell-based, human; conditions: DU-145, 24 hours at IC50 (finasteride 0.9 nM, dutasteride 1.6 μM, Bsy1 0.0054 nM)
Experimental: as §1, §5, §6

[11] = CD1, mouse, 1 μM
Experimental: as §7, §8

[12] = 1 μM
Experimental: as §7, §8

[13] = target: T1, SRD5A2 (Homo sapiens, UniProt P31213); conditions: cited from earlier work
T1 sequence (P31213 1-254): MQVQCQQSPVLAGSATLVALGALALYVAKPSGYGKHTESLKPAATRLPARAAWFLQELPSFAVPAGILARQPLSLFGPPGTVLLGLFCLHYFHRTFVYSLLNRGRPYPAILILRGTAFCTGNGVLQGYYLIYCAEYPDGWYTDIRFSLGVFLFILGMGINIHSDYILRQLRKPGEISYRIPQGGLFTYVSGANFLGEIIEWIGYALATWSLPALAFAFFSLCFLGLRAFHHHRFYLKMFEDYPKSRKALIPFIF

[14] = in vitro; conditions: CD1, mouse, hepatocytes
Experimental: as §7, §8

[15] = in vitro; conditions: human, hepatocytes
Experimental: as §7, §8

[16] = Homo sapiens, HEK293, HEK293 cell line, called antagonist activity against SRD5A2, read-out: IC50
[17] = Homo sapiens, DU-145, DU-145 cell line

O=C1C=C(C(=O)O)C2C(C3CC3)=NN(c3ccc(F)cc3)C2N1 (centres unmarked) [Bsy1, 3-cyclopropyl-1-(4-fluorophenyl)-6-oxo-3a,6,7,7a-tetrahydro-1H-pyrazolo[3,4-b]pyridine-4-carboxylic acid]
IC50 ([1]; DU-145 cell line): 5400 nM
IC50 [2, 16]: 0.02 nM
SELECTIVITY INDEX [3]: 3.7
SRD5A1 suppression [4]: comparable
relative expression of the SRD5A2 gene increased [5]: approximately 2 fold
solubility at 24 h [6]: > 200 µM
fraction unbound at 4 h, 10 μM [7]: 0.95
hepatocyte CLint at 1 μM ([8]; CD1, mouse, cryopreserved hepatocytes in suspension): < 6.4 µL/min/1e6 cells
hepatic clearance classification ([8]; mouse, predicted clearance below 30% of liver blood flow 126 ml/min/kg): low hepatic clearance
Predicted mouse Clearance ([8]; scaled from mouse hepatocyte CLint,app): <13.8 mL/min/kg
hepatocyte CLint at 1 μM ([9]; human, cryopreserved hepatocytes in suspension): 4.1 µL/min/1e6 cells
hepatic clearance classification ([9]; human, predicted clearance below 30% of liver blood flow 20.7 ml/min/kg): low hepatic clearance
Predicted human Clearance ([9]; scaled from human hepatocyte CLint,app): 6.7 mL/min/kg

O=C1C=C(C(=O)O)C2C(C3CC3)=NN(c3ccc(Br)cc3)C2N1 (centres unmarked) [Bsy2, 1-(4-bromophenyl)-3-cyclopropyl-6-oxo-3a,6,7,7a-tetrahydro-1H-pyrazolo[3,4-b]pyridine-4-carboxylic acid]
solubility at 24 h [6]: 195 µM (≈ 73.4 µg/mL)

O=C1C=C(C(=O)O)C2C(C3CC3)=NN(c3ccc(Cl)cc3)C2N1 (centres unmarked) [Bsy3, 1-(4-chlorophenyl)-3-cyclopropyl-6-oxo-3a,6,7,7a-tetrahydro-1H-pyrazolo[3,4-b]pyridine-4-carboxylic acid]
solubility at 24 h [6]: 190 µM (≈ 63 µg/mL)

O=C1C=C(C(=O)O)C2C(C3CC3)=NN(c3ccccc3F)C2N1 (centres unmarked) [Bsy4, 3-cyclopropyl-1-(2-fluorophenyl)-6-oxo-3a,6,7,7a-tetrahydro-1H-pyrazolo[3,4-b]pyridine-4-carboxylic acid]
solubility at 24 h [6]: > 200 µM

O=C1C=C(C(=O)O)C2C(C3CC3)=NN(c3cccc(F)c3)C2N1 (centres unmarked) [Bsy5, 3-cyclopropyl-1-(3-fluorophenyl)-6-oxo-3a,6,7,7a-tetrahydro-1H-pyrazolo[3,4-b]pyridine-4-carboxylic acid]
solubility at 24 h [6]: > 200 µM

COc1ccc(N2N=C(C3CC3)C3C(C(=O)O)=CC(=O)NC32)cc1 (centres unmarked) [Bsy6, 3-cyclopropyl-1-(4-methoxyphenyl)-6-oxo-3a,6,7,7a-tetrahydro-1H-pyrazolo[3,4-b]pyridine-4-carboxylic acid]
solubility at 24 h [6]: 120 µM (≈ 39.3 µg/mL)

C[C@]12C=CC(=O)N[C@@H]1CC[C@@H]1[C@@H]2CC[C@]2(C)[C@@H](C(=O)Nc3cc(C(F)(F)F)ccc3C(F)(F)F)CC[C@@H]12 [Dutasteride]
IC50 ([1]; DU-145 cell line): 1670 ± 1850 nM
IC50 [1, 17]: 1600 nM
IC50 ([2]; HEK293 cell line, called antagonist activity against SRD5A2): 1210 ± 1370 nM
IC50 ([2]; Homo sapiens, HEK293, HEK293 cell line, called antagonist activity against SRD5A2): 1290 nM
SELECTIVITY INDEX [3]: 0.81
relative expression of the SRD5A2 gene reduced [10]: approximately 3 fold
relative expression of the SRD5A2 gene increased [5]: approximately 2 fold

CC(C)(C)NC(=O)[C@H]1CC[C@H]2[C@@H]3CC[C@H]4NC(=O)C=C[C@]4(C)[C@H]3CC[C@]12C [Finasteride]
IC50 ([1]; DU-145 cell line): 0.72 ± 1.09 nM
IC50 [1, 17]: 0.9 nM
IC50 ([2]; HEK293 cell line, called antagonist activity against SRD5A2, read-out: IC50): 1.24 ± 1.43 nM
IC50 [2, 16]: 1.34 nM
SELECTIVITY INDEX [3]: 1.49
relative expression of the SRD5A2 gene reduced [10]: approximately 3 fold
SRD5A1 suppression [4]: comparable
relative expression of the SRD5A2 gene increased [5]: ~0.75 fold
SRD5A2 expression, drug treatment vs untreated, two-way ANOVA Dunnett test ([5]; HEK293, IC50 values): ns
solubility at 24 h [6]: > 200 µM
fraction unbound at 4 h, 10 μM [7]: 0.27
Predicted mouse Clearance [11]: 10.6 mL/min/kg
Predicted human Clearance [12]: 3.3 mL/min/kg
selectivity for SRD5A2 than SRD5A1 [13]: 100 fold
hepatocyte CLint at 1 μM [14]: 13.8 µL/min/1e6 cells
hepatocyte CLint at 1 μM [15]: 4.5 µL/min/1e6 cells
